Laboratory results as given in PMC4072591, “FGFR2 Is Amplified in the NCI-H716 Colorectal Cancer Cell Line and Is Required for Growth and Survival” (PLoS ONE, 2014).

Target: T1, FGFR2 (Homo sapiens, UniProt P21802)
T1 construct: endogenous amplified FGFR2 in NCI-H716 cells
Assay: FGFR2 Y653/[…] phosphorylation in NCI-H716 cells, western blot quantitation
Type: cell-based

T1 sequence (P21802 22-821): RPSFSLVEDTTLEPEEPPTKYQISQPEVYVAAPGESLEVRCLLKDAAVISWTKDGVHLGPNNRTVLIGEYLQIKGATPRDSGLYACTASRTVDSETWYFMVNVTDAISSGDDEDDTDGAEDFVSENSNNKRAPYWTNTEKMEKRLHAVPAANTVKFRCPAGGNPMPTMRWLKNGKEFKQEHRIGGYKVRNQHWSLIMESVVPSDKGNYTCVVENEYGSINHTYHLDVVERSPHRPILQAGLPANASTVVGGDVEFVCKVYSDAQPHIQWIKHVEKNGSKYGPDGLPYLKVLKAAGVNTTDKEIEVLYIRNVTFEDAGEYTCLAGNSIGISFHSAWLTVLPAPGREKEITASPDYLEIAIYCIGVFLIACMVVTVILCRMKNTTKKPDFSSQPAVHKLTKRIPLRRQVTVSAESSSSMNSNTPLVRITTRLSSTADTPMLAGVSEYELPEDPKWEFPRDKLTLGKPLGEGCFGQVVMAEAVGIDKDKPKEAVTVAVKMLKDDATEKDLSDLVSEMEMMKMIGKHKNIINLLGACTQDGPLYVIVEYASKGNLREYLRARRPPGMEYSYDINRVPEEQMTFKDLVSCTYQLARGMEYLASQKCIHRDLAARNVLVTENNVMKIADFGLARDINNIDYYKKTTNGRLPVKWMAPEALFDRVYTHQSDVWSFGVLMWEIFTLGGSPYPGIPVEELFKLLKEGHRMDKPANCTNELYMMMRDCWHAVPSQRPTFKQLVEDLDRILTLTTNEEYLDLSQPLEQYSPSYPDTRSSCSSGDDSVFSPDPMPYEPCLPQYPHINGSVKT

CN(C[C@@H]1COCCO1)S(=O)(=O)Nc1ccc2ccc3ncc(-c4cnn(C)c4)cc3c(=O)c2c1 [MK2461]
IC50: 165 nM
